Laboratory results from publication PMC4457826 (PLoS Pathogens, 2015).

Legend:
[1] = test system: USP7-NTD; experiment: Fluorescence polarization, USP7-NTD; assay type: binding, human; settings: FITC peptide 40 nM, protein up to 200 μM
Protocol: (§1) USP7 proteins were titrated (0 to 200 μM) with N-terminally labeled FITC-ICP0, FITC-GMPS or FITC-UHRF1 peptides (synthesized by CanPeptide, 40 nM) in 0.01% Triton X-100, 150 mM NaCl, 20 mM Tris pH 7.5. Polarized emission of FITC-ICP0 or FITC-GMPS or FITC-UHRF1 was measured with a Synergy H4 Hybrid Multi-Mode Microplate Reader (BioTek) with the excitation wavelength set at 485 nm and the emission wavelength set at 528 nm. The competition binding assay was performed with a fixed USP7-CTD concentration (8 μM), 40nM FITC-UHRF1 and increasing concentrations of unlabeled ICP0 (0 to 2500 μM). The polarization data were plotted and analyzed using GraphPad Prism version 5.0 to calculate dissociation (KD) and inhibition (Ki) constants. These assays were repeated at least 3 times and used to calculate the average and standard deviation.

[2] = test system: USP7 Ubl345; experiment: Fluorescence polarization, Ubl345; assay type: binding, human; settings: FITC peptide 40 nM, protein up to 200 μM
Protocol: as §1

[3] = biological target: T1, USP7-CTD (Homo sapiens, UniProt Q93009); experiment: Competition binding assay (fluorescence polarization), FITC-UHRF1 displacement; settings: USP7-CTD 8 μM, FITC-UHRF1 40 nM, unlabeled ICP0 0 to 2500 μM
T1 construct: USP7-CTD (535–1102); His tag (inferred from nickel-NTA purification; vector p15TV-L); made in house; host or cells: E. coli BL21(DE3)mgk
T1 sequence (Q93009 535-1102): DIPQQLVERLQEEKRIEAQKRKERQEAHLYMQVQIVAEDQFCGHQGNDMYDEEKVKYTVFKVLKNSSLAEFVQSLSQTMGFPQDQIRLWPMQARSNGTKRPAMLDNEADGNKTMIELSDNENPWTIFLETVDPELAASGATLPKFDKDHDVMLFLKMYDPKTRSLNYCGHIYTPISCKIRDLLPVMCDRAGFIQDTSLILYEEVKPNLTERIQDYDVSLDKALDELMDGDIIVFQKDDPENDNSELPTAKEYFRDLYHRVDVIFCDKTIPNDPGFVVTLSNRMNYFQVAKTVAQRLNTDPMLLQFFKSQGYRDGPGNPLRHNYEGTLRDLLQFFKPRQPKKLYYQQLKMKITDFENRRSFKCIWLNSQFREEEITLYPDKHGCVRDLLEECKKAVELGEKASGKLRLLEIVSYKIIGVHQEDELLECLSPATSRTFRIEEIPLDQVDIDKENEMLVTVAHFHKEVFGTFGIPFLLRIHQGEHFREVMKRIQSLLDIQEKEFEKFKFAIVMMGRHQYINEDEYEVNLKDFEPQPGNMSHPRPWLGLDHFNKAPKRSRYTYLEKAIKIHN
Protocol: Given the importance of the KxxxK motif in ICP0 and GMPS for USP7-CTD binding, we examined the UHRF1 sequence for such a motif and identified ^642[…]^649 (Fig 4A). […] The saturation curve is shown in S3 Fig. A competitive binding assay was used to establish whether the UHRF1 and ICP0 peptides were competing for the same binding site on Ubl2. This assay was performed by measuring the fluorescence polarization with increasing amounts of unlabeled ICP0 while keeping both USP7-CTD and FITC-UHRF1 constant. […] This competition was confirmed by the competition binding experiment shown in S3 Fig.
as §1, with “These assays were repeated at least 3 times and used to calculate the average and standard deviation.” left out

[4] = test system: myc-tagged D762R/D764R (MRGR) USP7; experiment: Co-immunoprecipitation with myc-tagged D762R/D764R (MRGR) USP7 from 293T cells; assay type: cell-based, human; settings: anti-myc IP, Western blot, Fig 5
Protocol: (§2) 293T cells were grown in Dulbecco’s modified Eagle’s medium (DMEM) (Gibco) with 10% fetal calf serum. 293T cells at 70% confluence in a 10-cm-diameter dish were transfected with 10 μg pCANmycUSP7 expressing WT USP7 or D762R/D764R (MRGR) USP7 or with pcDNA3.1 (negative control), in each case using 20 μl PolyJet (SignaGen Laboratories) transfection reagent. Cells were transferred to a 15-cm-diameter dish 24 h post-transfection and harvested 48 h post-transfection. For experiments on USP7-ICP0 interactions, 293T cells were co-transfected with 1 μg pCANmycUSP7 expressing WT or D762R/D764R (MRGR) USP7 and either 1 μg pCI-110 ICP0 or 1 μg pcDNA3.1. For controls lacking USP7, 1 μg pCI-110 ICP0 was co-transfected with 1 μg pcDNA3.1. In each case 4 μl PolyJet (SignaGen Laboratories) transfection reagent was used.
Protein samples were subjected to SDS-PAGE and transferred to nitrocellulose. Membranes were blocked in 5% skim milk in Tris-buffered saline with 1% Tween (TBS-T) and then incubated with antibodies against ICP0 (H1A027 from Virusys Corporation; 1:5000 dilution), myc (sc-40 from Santa Cruz Biotechnology; 1:5000 dilution), NP95/UHRF1 (A301-470A from Bethyl Laboratories; 1:1000 dilution), GMPS (rabbit serum raised against full-length GMPS [17]; 1:5000 dilution) and actin (MA5-15739 from Pierce; 1:20,000 dilution). After washing, blots were probed with goat anti-mouse or goat anti-rabbit peroxidase (Santa Cruz Biotechnology; 1:5000 dilution) and developed using chemiluminescence reagents (Santa Cruz biotechnology).
293T cells transfected as described above were washed in phosphate-buffered saline (PBS) and lysed on ice for 45 min in a 4x volume of RIPA buffer (50 mM Tris-HCl [pH 8], 150 mM NaCl, 0.1% sodium deoxycholate, 0.5% NP-40) with complete protease inhibitors (Sigma P8340), followed by centrifugation. 1 mg of each clarified lysate was incubated with 1 μg of anti-myc antibody for 1h, followed by incubation with 30 μl of A/G PLUS agarose resin (Santa Cruz Biotechnology) for 2 h at 4°C with end-over-end rotation. The resin was harvested by centrifugation, washed in RIPA buffer, and then boiled in SDS loading buffer. Immunoprecipitated proteins were separated by SDS-PAGE and analyzed by Western blotting, as described above.

[5] = test system: 293T cells; experiment: ICP0 input levels with and without USP7, Western blot, 293T cells; assay type: cell-based; settings: input levels of ICP0 with and without USP7, Fig 5A
Protocol: as §2
Protein samples were subjected to SDS-PAGE and transferred to nitrocellulose. […]
293T cells transfected as described above were washed in phosphate-buffered saline (PBS) and lysed on ice for 45 min in a 4x volume of RIPA buffer (50 mM Tris-HCl [pH 8], 150 mM NaCl, 0.1% sodium deoxycholate, 0.5% NP-40) with complete protease inhibitors (Sigma P8340), followed by centrifugation. […] Immunoprecipitated proteins were separated by SDS-PAGE and analyzed by Western blotting, as described above.

Molecule	polarization with USP7-NTD [1]	polarization with Ubl345 [2]	competition with UHRF1 peptide for binding to Ubl2 [3]	recovery with D762R/D764R USP7 (co-IP), in words [4]	effect of WT USP7 and D762R/D764R mutant on ICP0 level [5]
C[C@H](NC(=O)[C@H](CS)NC(=O)[C@H](CCCCN)NC(=O)[C@H](CCCNC(=N)N)NC(=O)[C@@H]1CCCN1C(=O)CNC(=O)[C@H](CCCNC(=N)N)NC(=O)[C@@H]1CCCN1)C(=O)N[C@@H](CCCNC(=N)N)C(=O)N[C@@H](CCCCN)C(=O)N[C@H](C(=O)N[C@@H](CCCNC(=N)N)C(=O)N[C@@H](Cc1c[nH]cn1)C(=O)O)[C@@H](C)O [ICP0 peptide]	did not show any polarization	did not show any polarization	readily competes with the UHRF1 peptide for binding to Ubl2		
ICP0: Herpes simplex virus-1 immediate-early protein ICP0, expressed in 293T cells				decreased (2-fold in multiple experiments) but not abrogated	stabilizing effect on ICP0
